Experimental data: ChEMBL document CHEMBL1201862, “PubChem BioAssay data set” (2004)
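Growth conditions: 96-well plates. Treatment: test compound, 48 hours, 5 concentrations. Analysis: linear interpolation between bracketing concentrations; unreached endpoints set to highest concentration. Abbreviation: GI50, concentration required for 50% inhibition of growth.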 Active and inactive are the calls of the source. No stated cut-off is given here; in the data, active = GI50 up to about 1.1 µM and inactive = higher.

How the values were obtained:
Experiment in all cases: NCI anticancer screen, dose series, 48 h
NCI-H226 = system: NCI-H226
SN12C = system: SN12C
HL-60 = system: HL-60
IGROV-1 = system: IGROV-1
M14 = system: M14
HCT-15 = system: HCT-15
SNB-19 = system: SNB-19
786-0 = system: 786-0
NCI-H23 = system: NCI-H23
OVCAR-8 = system: OVCAR-8
DU-145 = system: DU-145
MDA-MB-435 = system: MDA-MB-435
EKVX = system: EKVX
HOP-62 = system: HOP-62
MOLT-4 = system: MOLT-4
Malme-3M = system: Malme-3M
ACHN = system: ACHN
LOX IMVI = system: LOX IMVI
SF-268 = system: SF-268
CAKI-1 = system: CAKI-1

| Compound | GI50 (NCI-H226) | GI50 (SN12C) | GI50 (HL-60) | GI50 (IGROV-1) | GI50 (M14) | GI50 (HCT-15) | GI50 (SNB-19) | GI50 (786-0) | GI50 (NCI-H23) | GI50 (OVCAR-8) | GI50 (DU-145) | GI50 (MDA-MB-435) | GI50 (EKVX) | GI50 (HOP-62) | GI50 (MOLT-4) | GI50 (Malme-3M) | GI50 (ACHN) | GI50 (LOX IMVI) | GI50 (SF-268) | GI50 (CAKI-1) |
| --- | --- | --- | --- | --- | --- | --- | --- | --- | --- | --- | --- | --- | --- | --- | --- | --- | --- | --- | --- | --- |
| O=C1c2c(O)cccc2C(C2OC(CO)C(O)C(O)C2O)c2cc(CO)cc(O)c21 (stereo not drawn) | > 100 µM (inactive) | > 100 µM (inactive) | > 100 µM (inactive) | > 100 µM (inactive) | > 100 µM (inactive) | > 100 µM | > 100 µM (inactive) | > 100 µM (inactive) | > 100 µM (inactive) | > 100 µM (inactive) | > 100 µM (inactive) | > 100 µM (inactive) | > 100 µM (inactive) | > 100 µM (inactive) | > 100 µM (inactive) | > 100 µM (inactive) | > 100 µM (inactive) | > 100 µM (inactive) | > 100 µM (inactive) | > 100 µM (inactive) |
| Cc1n(CC(C)C)c2c([n+]1C)C(=O)c1ccccc1C2=O | 0.311 µM (active) | 0.0255 µM (active) | 0.0405 µM (active) | 0.0224 µM (active) | 0.27 µM (active) | 0.478 µM | 0.0716 µM (active) | 0.578 µM (active) | 0.0374 µM (active) | 0.0265 µM (active) | 0.203 µM (active) | 0.143 µM (active) | 0.0631 µM (active) | 0.131 µM (active) | 0.0478 µM (active) | 0.0957 µM (active) | 0.432 µM (active) | 0.0746 µM (active) | < 0.0169 µM (active) | 1.17 µM (inactive) |
| CO/N=C(\C)c1cccc(Nc2c3ccccc3nc3occc23)c1 | 12 µM (inactive) | 16 µM (inactive) | 3.53 µM (inactive) | 5.05 µM (inactive) | 8.97 µM (inactive) | 6.21 µM | 17.5 µM (inactive) | 14.7 µM (inactive) | 7.45 µM (inactive) | 20 µM (inactive) | 18.9 µM (inactive) | 2.34 µM (inactive) | 11.1 µM (inactive) | 6.37 µM (inactive) | 4.63 µM (inactive) | 13.4 µM (inactive) |  | 10.4 µM (inactive) | 11.2 µM (inactive) | 4.82 µM (inactive) |
| COc1ccc(O)c(/C(C)=N/NC(=S)N(C)C)c1 | 16.1 µM (inactive) | > 44.2 µM (inactive) | 56 µM (inactive) | 14.3 µM (inactive) | 11.8 µM (inactive) | 5.12 µM | 40.5 µM (inactive) | > 40.7 µM (inactive) | 24.7 µM (inactive) | 33.4 µM (inactive) | 44 µM (inactive) | 57.7 µM (inactive) | 31.9 µM (inactive) | 21.9 µM (inactive) | 36.5 µM (inactive) | 71 µM (inactive) | 13.5 µM (inactive) | 4.48 µM (inactive) | 20.9 µM (inactive) | 16.7 µM (inactive) |
| CC(C)(C)n1c(=O)n2c(-c3ccccc3)c(-c3ccccc3)n2c1=O | > 100 µM (inactive) | > 100 µM (inactive) | 11.5 µM (inactive) | > 100 µM (inactive) | 37 µM (inactive) | > 100 µM | > 100 µM (inactive) | 57.5 µM (inactive) | > 100 µM (inactive) | > 100 µM (inactive) | > 100 µM (inactive) | > 100 µM (inactive) | > 100 µM (inactive) |  |  | > 100 µM (inactive) | > 100 µM (inactive) | 68.4 µM (inactive) | > 100 µM (inactive) | > 100 µM (inactive) |
| COC(=O)C1=CO[C@@H](OC2OC(CO)C(O)C(O)C2O)[C@H]2[C@@H](C)[C@@H](O)[C@@H](O)[C@@H]12 (stereo partly drawn) | > 100 µM (inactive) | > 100 µM (inactive) | > 100 µM (inactive) | > 100 µM (inactive) | > 100 µM (inactive) | > 100 µM |  | > 100 µM (inactive) | > 100 µM (inactive) | > 100 µM (inactive) | > 100 µM (inactive) | > 100 µM (inactive) | > 100 µM (inactive) | > 100 µM (inactive) | > 100 µM (inactive) | > 100 µM (inactive) | > 100 µM (inactive) | > 100 µM (inactive) | > 100 µM (inactive) | > 100 µM (inactive) |
| O=C(c1ccc(F)cc1)c1cccc(C(=O)c2ccc(F)cc2)n1 | > 45.4 µM (inactive) | 55.2 µM (inactive) | > 100 µM (inactive) | 24.9 µM (inactive) | 62.2 µM (inactive) | > 100 µM | 25.2 µM (inactive) | 37.8 µM (inactive) | 20.2 µM (inactive) | 81.5 µM (inactive) | > 100 µM (inactive) | > 100 µM (inactive) | > 100 µM (inactive) | 20.1 µM (inactive) | > 100 µM (inactive) | > 77.6 µM (inactive) | 46.2 µM (inactive) | 60.7 µM (inactive) | 24.6 µM (inactive) | 28 µM (inactive) |
| COc1cc2c(cc1O)C(Cc1ccc(OCc3ccccc3)c(OCc3ccccc3)c1)N(C(=O)NCCc1ccccc1)CC2 (stereo not drawn) | > 100 µM (inactive) | > 100 µM (inactive) | 37.3 µM (inactive) | > 100 µM (inactive) | > 100 µM (inactive) | > 100 µM | > 100 µM (inactive) | > 100 µM (inactive) | > 100 µM (inactive) | > 100 µM (inactive) | > 100 µM (inactive) | > 100 µM (inactive) | > 100 µM (inactive) | > 100 µM (inactive) | > 100 µM (inactive) | > 100 µM (inactive) | > 100 µM (inactive) | > 100 µM (inactive) | > 100 µM (inactive) | > 100 µM (inactive) |
| CCn1c(SCC(=O)N/N=C2\SCC(=O)N2c2ccc(C)cc2)nc2ccccc2c1=O | 23.8 µM (inactive) | 27 µM (inactive) | 92.3 µM (inactive) | 21.6 µM (inactive) | 36.1 µM (inactive) | 32.1 µM | 20.8 µM (inactive) | 19.1 µM (inactive) | 19.1 µM (inactive) | 17 µM (inactive) | 28.2 µM (inactive) | 21.2 µM (inactive) | 22.4 µM (inactive) | 21.7 µM (inactive) | 25.9 µM (inactive) | 21.9 µM (inactive) | 18.6 µM (inactive) | 25.2 µM (inactive) | 20.3 µM (inactive) | 18.7 µM (inactive) |
| Cc1ccc(S(=O)(=O)NC(=O)Nc2ccc(C(=O)O)c(O)c2)cc1 | > 100 µM (inactive) |  | > 100 µM (inactive) |  | > 100 µM (inactive) | > 100 µM | > 100 µM (inactive) | > 100 µM (inactive) | > 100 µM (inactive) | > 100 µM (inactive) | > 100 µM (inactive) | > 100 µM (inactive) | > 100 µM (inactive) | > 100 µM (inactive) | > 100 µM (inactive) | > 100 µM (inactive) | > 100 µM (inactive) | > 100 µM (inactive) | > 100 µM (inactive) | > 100 µM (inactive) |
| C/C1=C\CC[C@@]2(C)O[C@@H]2C[C@@H]2[C@H](C/C(C)=C/CC1)OC(=O)C21CCN=N1 (stereo partly drawn) | > 100 µM (inactive) | 37.8 µM (inactive) | 37.2 µM (inactive) | > 75 µM (inactive) | > 75 µM (inactive) | > 75 µM | > 75 µM (inactive) | > 75 µM (inactive) | > 75 µM (inactive) | > 75 µM (inactive) | > 75 µM (inactive) | > 75 µM (inactive) | > 75 µM (inactive) | 27.9 µM (inactive) | 16 µM (inactive) | > 75 µM (inactive) | 35.3 µM (inactive) | 21 µM (inactive) | > 75 µM (inactive) | > 75 µM (inactive) |
| COc1ccc2nc3c(c(N)c2c1)C1CCC3C1(C)C (stereo not drawn) | 25.3 µM (inactive) | 52.1 µM (inactive) | 18.5 µM (inactive) | 42.9 µM (inactive) | 17.8 µM (inactive) | 51.1 µM | > 100 µM (inactive) | 22.5 µM (inactive) | 54.8 µM (inactive) | 71.1 µM (inactive) | > 100 µM (inactive) | 33 µM (inactive) | 30.6 µM (inactive) | 16 µM (inactive) | 46.9 µM (inactive) | 24.3 µM (inactive) | > 100 µM (inactive) | 35.9 µM (inactive) | 72.1 µM (inactive) | 39.3 µM (inactive) |
| Nc1n[n+]([O-])c2ccc(Cl)cc2[n+]1[O-] | 23.1 µM (inactive) | 32.1 µM (inactive) | 7.23 µM (inactive) | 11.6 µM (inactive) | 17.1 µM (inactive) | 16.1 µM | 34.5 µM (inactive) | 31.7 µM (inactive) | 20.1 µM (inactive) | > 10 µM (inactive) | 46.1 µM (inactive) | 21.4 µM (inactive) | 32.2 µM (inactive) | 11 µM (inactive) | 14.7 µM (inactive) | 18.3 µM (inactive) | 24.2 µM (inactive) | 25.1 µM (inactive) | 52.1 µM (inactive) | 21.9 µM (inactive) |
| COc1cc2oc(=O)ccc2cc1CC=C(C)C [SUBEROSIN] | 29.6 µM (inactive) | 47.6 µM (inactive) | 14.7 µM (inactive) | 62.8 µM (inactive) | > 10 µM (inactive) |  | 50.6 µM (inactive) | > 10 µM (inactive) | 52.4 µM (inactive) | 44.6 µM (inactive) | 36.8 µM (inactive) | 43.3 µM (inactive) | 5.81 µM (inactive) | > 100 µM (inactive) | 28.8 µM (inactive) | 37.4 µM (inactive) | 35.2 µM (inactive) | 39.1 µM (inactive) | 47.8 µM (inactive) | 40.6 µM (inactive) |
